# Laboratory results published in patent publication US10597352B1, “Stable alkyl benzidine composition and methods of making and using same” (OneStep Technologies Inc., priority 2019, dated 2020).
# Test: Stability evaluation of alkyl benzidine solutions on storage at a stated temperature (method not described)
# Format: physicochemical
# Description: In one example, a solution of TMB prepared in polyethylene glycol in accordance with Example 1.0 was evaluated for stability. It was determined that the solution was stable at room temperature (i.e. 22° C.) for a period of at least two years. It was further determined that the solution was stable at 37° C. for a period of at least two months.
smiles,measurement,value
"Cc1cc(-c2cc(C)c(NCCCS(=O)(=O)O)c(C)c2)cc(C)c1N [N-(3-sulfopropyl)-3,3′,5,5′-tetramethylbenzidine]",stability of compositions produced with the tetraalkyl benzidine compound (in words),stable compositions
